Values of other authors in article PMC4258517 (Antiviral research, 2014).
pIC50: −log10 of the molar value.

Assays:
[1] = tested on: SV40 large T antigen ATPase; details: ref Seguin et al., 2012b
[2] = read-out: MTS assay IC50; cytotoxicity; ref Seguin et al., 2012b
[3] = tested on: BKV; details: HK2 cells, 15 μM; ref Wright et al., 2009
[4] = tested on: SV40; details: 100 μM; ref Wright et al., 2009
[5] = tested on: patients with PML; details: trial prematurely terminated, ref Clifford et al., 2013

SMILES	mechanism of inhibition on SV40 protein [1]	pIC50 [2]	reduction of BKV viral load [3]	reduction in SV40 DNA replication [4]	clinical trial outcome [5]
Oc1c(Cl)cc(Cl)cc1Sc1cc(Cl)cc(Cl)c1O [bithionol]	competitive	4.17			
Oc1c(Cl)cc(Cl)c(Cl)c1Cc1c(O)c(Cl)cc(Cl)c1Cl [hexachlorophene]	competitive	4.26			
CC1=C(C(=O)OCc2ccccc2)C(c2ccc(-c3ccccc3)cc2)NC(=O)N1CCCCCC(=O)O (stereo not shown) [MAL2-11B]			one log reduction	fivefold reduction	
OC(c1cc(C(F)(F)F)nc2c(C(F)(F)F)cccc12)C1CCCCN1 (stereo not shown) [Mefloquine]					lack of efficacy
